Conditions in one series: not given
By melting point is commonly meant the temperature of the solid-liquid transition. Molecule `COP(=S)(OC)SCC(=O)N(C)C=O` came in with a log10 vapour pressure (mmHg) of -6.07 and a melting point of 25.5 °C. In general, boiling point refers to the temperature at which the vapour pressure of the liquid equals the pressure above it. Molecule `CC1CC1(C)C` (stereo not given) displayed a boiling point of 54 °C and a melting point of -138 °C. Consider `CC1C=CC(=O)O1` (stereo not given), for which the boiling point was 209 °C. Turning to `CC1(O)CCCC1`, the boiling point is 136 °C and the melting point came out at 36 °C. In turn, `Cl.NCCc1ccccc1` showed a melting point of 218 °C. For `CCOCCOC(C)=O`, the boiling point is 156 °C, the log10 Henry constant (atm·m³/mol) was -5.49, the log10 vapour pressure (mmHg) was 0.369 and the melting point is -61.7 °C. Also, the ready biodegradability result is “readily biodegradable”. As to `CN1CCCCC1`, the boiling point stood at 107 °C, the log10 Henry constant (atm·m³/mol) is -4.46, the log10 vapour pressure (mmHg) amounted to 1.29 and the ready biodegradability result was “not readily biodegradable”. On to `Cc1c(N)cc([N+](=O)[O-])cc1C(N)=O`, for which the melting point is 199 °C. For `NCCNCc1ccccc1`, the ready biodegradability result is on record as “not readily biodegradable”.

For the molecule `N=C(N)NC(N)=O`, the melting point was found to be 105 °C. With `c1ccc(-c2cc3ccccc3[nH]2)cc1`, the melting point was determined as 190 °C and the ready biodegradability entry is “not readily biodegradable”.

On to `O=C1NCCN1c1ncc([N+](=O)[O-])s1`, for which the melting point is 261 °C. `C=COCC(C)C` had a boiling point of 83 °C, a log10 vapour pressure (mmHg) of 1.77 and a melting point of -112 °C. Turning to `Cc1nc(NS(=O)(=O)c2ccc(N)cc2)oc1C`, the melting point came out at 193 °C.

`Cc1ccc(C=O)o1` returned a boiling point of 187 °C. `FC(F)(F)N1C(F)(F)C(F)(F)OC(F)(F)C1(F)F` showed a boiling point of 51 °C and a melting point of -80 °C.

For the molecule `CNC(=O)Oc1cc(C)cc(C(C)C)c1`, the log10 Koc (L/kg) came to 2.48, the log10 vapour pressure (mmHg) was -4.52 and the melting point is 87 °C. In turn, `Brc1ccc2c(c1)Oc1cc(Br)ccc1O2` showed a log10 vapour pressure (mmHg) of -5.89 and a melting point of 145 °C.

On to `CCc1cccc(C)c1N`, for which the boiling point turned out to be 231 °C and the melting point was -33 °C. In the case of `C[C@H](CC(=O)O)[C@H]1CC[C@H]2[C@@H]3CC[C@@H]4CCCC[C@]4(C)[C@H]3CC[C@]12C`, the melting point is 177 °C. Consider `CC(O)C(C)O` (stereo not given), for which the ready biodegradability entry is “readily biodegradable”.

Consider `O=C1OC(c2ccc(O)cc2)(c2ccc(O)cc2)c2ccccc21`, for which the melting point is 262 °C and the ready biodegradability entry was “not readily biodegradable”. With `Nc1ccc(/N=N/c2ccc(N)cc2)cc1`, the melting point amounted to 250 °C. Consider `COCCOC(=O)c1ccccc1C(=O)OCCOC`, for which the boiling point turned out to be 340 °C and the melting point is -45 °C. As for `O=[N+]([O-])c1cc([N+](=O)[O-])c2ccccc2c1O`, the melting point was 131 °C. `O=c1c(-c2ccccc2)c1-c1ccccc1`: the melting point turned out to be 119 °C. `CCCCCCCCCCCCCCCCC(=O)OCC` displayed a melting point of 28 °C. With `Clc1cc(Cl)c(Cl)c(-c2cc(Cl)c(Cl)cc2Cl)c1`, the log10 Henry constant (atm·m³/mol) was -4.6.

`CCCCCCCCCC(C)O` (stereo not given) yielded a log10 vapour pressure (mmHg) of -1.48.

Regarding `CC(=O)NCc1c(I)c(NC(C)=O)c(I)c(C(=O)O)c1I`, the melting point was found to be 255 °C. Turning to `O=[N+]([O-])c1ccc(O)c2ncccc12`, the melting point was 180 °C. For the molecule `C=CCOC(=O)/C=C\C(=O)OCC=C`, the log10 vapour pressure (mmHg) is -2.17. The molecule `C#C[C@]1(OC(C)=O)CC[C@H]2[C@@H]3CCC4=CC(=O)CC[C@@H]4[C@H]3CC[C@@]21C` displayed a melting point of 162 °C.

For the molecule `CCCOP(=O)(OCCC)OCCC`, the boiling point was 252 °C and the log10 Henry constant (atm·m³/mol) is -6.17. `Cc1cc(Cl)nn1C` displayed a boiling point of 211 °C and a melting point of 47.5 °C.

On to `CCSC(C)C`, for which the boiling point was 108 °C and the melting point is -122 °C. Consider `CCC=CC(C)=O`, for which the boiling point stood at 140 °C.

`NCCCN1CCN(CCCN)CC1` came in with a melting point of 15 °C. `CC(Cl)C(Cl)Cl` (stereo not given) came in with a boiling point of 132 °C and a log10 vapour pressure (mmHg) of 0.491. The molecule `N=C(N)NS(=O)(=O)c1ccc(N)cc1` returned a melting point of 192 °C. For `Oc1ccncc1`, the melting point worked out at 150 °C and the ready biodegradability entry is “readily biodegradable”. Turning to `CC(=O)CC(=O)c1ccccc1`, the boiling point came out at 262 °C, the melting point is 56 °C and the ready biodegradability entry was “readily biodegradable”. Turning to `O=C(O)C(O)c1ccccc1` (racemic), the melting point was determined as 124 °C. For the molecule `ClCCCCl`, the boiling point is 121 °C, the log10 Henry constant (atm·m³/mol) was -3.01, the log10 vapour pressure (mmHg) stood at 1.26 and the melting point is -99.5 °C. Molecule `C[Si](C)(C)O[Si](C)(C)O[Si](C)(C)O[Si](C)(C)O[Si](C)(C)O[Si](C)(C)O[Si](C)(C)O[Si](C)(C)C` registered a log10 vapour pressure (mmHg) of -2.5. Turning to `CC1CN(C)CCN1C` (stereo not given), the boiling point worked out at 150 °C. Molecule `CS/C(C)=N/OC(=O)N(C)SN(C)C(=O)O/N=C(\C)SC` had a log10 Koc (L/kg) of 2.54, a log10 vapour pressure (mmHg) of -4.15 and a melting point of 173 °C. The molecule `COc1ccccc1Oc1ccccc1OC` gave a boiling point of 330 °C and a melting point of 79.5 °C. `CCCCCCCCCCC` registered a boiling point of 196 °C, a log10 biodegradation half-life (days) of 0.845, a log10 vapour pressure (mmHg) of -0.385 and a melting point of -25.6 °C. Besides, the ready biodegradability entry is listed as “readily biodegradable”.

Regarding `CCOC(=O)CCCCC(=O)OCC`, the boiling point came out at 245 °C, the log10 vapour pressure (mmHg) is -1.24 and the melting point was -19.8 °C. The molecule `Nc1cccc(Cl)c1Cl` registered a boiling point of 252 °C and a melting point of 24 °C.

In turn, `CCn1ccc2ccccc21` showed a boiling point of 252 °C and a melting point of 105 °C. Molecule `CC(C)C(O)CO` (stereo not given) yielded a boiling point of 206 °C. For the molecule `CC(C)COc1ccccc1`, the boiling point came to 198 °C.

Consider `CCNC(=O)NC(=O)/C(C#N)=N/OC`, for which the log10 Koc (L/kg) was found to be 2.09, the log10 vapour pressure (mmHg) was -5.95 and the melting point stood at 160 °C.

On to `Cc1ccc2ccc3ccc(C)cc3c2c1`, for which the melting point amounted to 145 °C. As for `CC/C(=C\c1ccccc1)[N+](=O)[O-]`, the boiling point came out at 308 °C and the melting point was 90.5 °C. Take `CCOC(=O)Oc1c(OC)cc(C(=O)O[C@@H]2C[C@@H]3CN4CCc5c([nH]c6cc(OC)ccc56)[C@H]4C[C@@H]3[C@H](C(=O)OC)[C@H]2OC)cc1OC`: the melting point was 177 °C. The molecule `O=S(=O)(O)OCCOc1ccc(Cl)cc1Cl` gave a melting point of 170 °C. As to `CC1(C)CO1`, the boiling point was 52 °C. For `c1c[nH]cn1`, the boiling point stood at 257 °C, the melting point was determined as 90.5 °C and the ready biodegradability result is “readily biodegradable”.

As to `C[C@@]12CCC[C@H]1[C@@H]1CC[C@H]3CCCC[C@]3(C)[C@H]1CC2`, the melting point is 64.6 °C. Take `COc1ccc2c(c1)O[C@H]1c3ccc(O)cc3OC[C@@H]21`: the melting point came to 128 °C.

For `O=Cc1cccc(O)c1O`, the boiling point was 235 °C and the melting point worked out at 108 °C. Regarding `COc1ccc(C(=O)c2cccc(C)c2)cc1C`, the melting point was determined as 62.3 °C.

`C=C(C)CCCC` came in with a boiling point of 92 °C, a log10 vapour pressure (mmHg) of 1.78 and a melting point of -103 °C. Consider `O=C(OCCOCCOC(=O)c1ccccc1)c1ccccc1`, for which the melting point turned out to be 33.5 °C. With `CC(C)=CCC/C(C)=C/C=C/C(C)=C/C=C/C(C)=C/C=C/C=C(C)/C=C/C=C(C)/C=C/C=C(\C)CCC=C(C)C`, the melting point was found to be 175 °C. `CC(CCl)[N+](=O)[O-]` (stereo not given) gave a boiling point of 172 °C.

Staying with this series, now noted: fish.
`CN1CCCCC1` displayed a log10 BCF of 0.65. On to `Clc1cc(Cl)c(Cl)c(-c2cc(Cl)c(Cl)cc2Cl)c1`, for which the log10 biotransformation half-life (days) was 2.4.
